Experimental data taken from ChEMBL document CHEMBL1201862, “PubChem BioAssay data set” (2004).
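Test compounds were applied to cells in 96-well plates for 48 hours at 5 doses. GI50: concentration for 50% inhibition of growth.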 The source made the active and inactive calls. No stated cut-off is given here; in the data, active = GI50 up to about 1.1 µM and inactive = higher.

Key:
Assay in all cases: growth of human tumour cells (NCI), 48 h
NCI-H226 = test system: NCI-H226
HCC 2998 = test system: HCC 2998
HCT-15 = test system: HCT-15
TK-10 = test system: TK-10
SR = test system: SR
OVCAR-8 = test system: OVCAR-8
HCT-116 = test system: HCT-116
K562 = test system: K562
MCF7 = test system: MCF7
SF-295 = test system: SF-295
CAKI-1 = test system: CAKI-1
UACC-257 = test system: UACC-257
MDA-MB-435 = test system: MDA-MB-435
ACHN = test system: ACHN
HOP-62 = test system: HOP-62
786-0 = test system: 786-0
NCI-H522 = test system: NCI-H522
A498 = test system: A498
MOLT-4 = test system: MOLT-4
A549 = test system: A549

SMILES | GI50 (NCI-H226) | GI50 (HCC 2998) | GI50 (HCT-15) [µM] | GI50 (TK-10) | GI50 (SR) | GI50 (OVCAR-8) | GI50 (HCT-116) | GI50 (K562) | GI50 (MCF7) | GI50 (SF-295) | GI50 (CAKI-1) | GI50 (UACC-257) | GI50 (MDA-MB-435) | GI50 (ACHN) | GI50 (HOP-62) | GI50 (786-0) | GI50 (NCI-H522) | GI50 (A498) | GI50 (MOLT-4) | GI50 (A549)
CCOC(=O)NC1=C(N2CC2)C(=O)C(NC(=O)OCC)=C(N2CC2)C1=O [DIAZIQUONE] | 4.23 µM (inactive) | 6.85 µM (inactive) | 7.69 | 31.6 µM (inactive) | 0.339 µM (active) | 3.73 µM (inactive) | 3.53 µM (inactive) | 5.43 µM (inactive) | 1.98 µM (inactive) | 1.12 µM (active) | 1.08 µM (active) | 4.65 µM (inactive) | 3.58 µM (inactive) | 0.82 µM (active) | 0.741 µM (active) | 1.56 µM (inactive) | 3.14 µM (inactive) | 3.56 µM (inactive) | 1.38 µM (inactive) | 
C=C1c2nc3ccccc3n2C=C(c2ccccc2)N1c1ccc(C)cc1 | 68.7 µM (inactive) | 9.31 µM (inactive) | 35.4 | 79.3 µM (inactive) | 10.3 µM (inactive) | 48.5 µM (inactive) | 36.9 µM (inactive) | 31.5 µM (inactive) | 29.5 µM (inactive) | > 100 µM (inactive) | 32.8 µM (inactive) | 80.4 µM (inactive) | 33.2 µM (inactive) | 53.5 µM (inactive) |  | 45.3 µM (inactive) | 35.1 µM (inactive) | 52.7 µM (inactive) | 20.6 µM (inactive) | > 100 µM (inactive)
COc1ccc2cc(C(=O)O)ccc2c1OC | > 100 µM (inactive) | > 100 µM (inactive) | > 100 |  | > 100 µM (inactive) | > 100 µM (inactive) | > 100 µM (inactive) | > 100 µM (inactive) | > 100 µM (inactive) | > 100 µM (inactive) | > 100 µM (inactive) | > 100 µM (inactive) | > 100 µM (inactive) | > 100 µM (inactive) | > 100 µM (inactive) | > 100 µM (inactive) | > 100 µM (inactive) | > 100 µM (inactive) | > 100 µM (inactive) | > 100 µM (inactive)
Nc1nc(SCc2ccccc2Cl)cc(C(=O)O)n1 | 49.1 µM (inactive) | 59.2 µM (inactive) | 41.9 | > 100 µM (inactive) | 39 µM (inactive) | 46.9 µM (inactive) | 54.5 µM (inactive) | 46.5 µM (inactive) | > 100 µM (inactive) | 58.2 µM (inactive) | > 100 µM (inactive) | > 100 µM (inactive) | 73.1 µM (inactive) | 91.4 µM (inactive) | 63.1 µM (inactive) | 79.1 µM (inactive) | 30.9 µM (inactive) | > 100 µM (inactive) |  | > 100 µM (inactive)
